Reference: US20160193291A1, “METHOD OF REGULATING NEURONAL AXON ELONGATION” (RIKEN, priority 2012, published 2016)

Assays:
Format in all cases: cell-based, chick (Gallus gallus)
DRG neurons = test: Neurite elongation (neurite length) of transfected DRG neurons; details: 15 min pretreatment with 10 μM EIPA
[1] = tested on: growth cones of DRG neurons; test: Growth cone collapse assay (growth cone surface area)
Experimental: Dissociated DRG neurons from embryonic day 7-9 chicks were cultured for at least 12 h in an F-12 medium (Invitrogen) containing 50 ng/ml NGF. […] Subsequently, the culture medium was changed to BSS buffer. […] In experiments using epoxomicin, the cells were treated with […] epoxomicin for 15 min before the addition of […] Sema3A.
The growth cone area was defined as a hand-like region extending from a distal part of a neurite to a growth cone neck whose width is equal to the width of the neurite. The width of each neurite was calculated by measuring the width of the neurite region at a location that was 30 μm apart from the distal part of each neurite. This calculation was adopted because the mean length of the control growth cone was less than 30 μm.

[2] = tested on: growth cones of primary culture DRG neurons; test: Endocytosis of Alexa Fluor dextran (macropinocytosis) in growth cones
[3] = tested on: Syx1B protein in growth cones; test: Immunocytochemistry of Syx1B protein in growth cones; details: for protein level of Syx1B normalized to that of SNAP25 in the growth cones: 10 min treatment
Experimental: After Sema3A or vehicle treatment, the cells were fixed with 4% PFA for 1 h at 37° C., followed by permeabilization with 0.3% Triton X-100 in PBS for 2 min at a room temperature.
The cells were then immediately washed three times with a blocking solution (1% BSA and 0.1% Triton X-100 PBS), followed by incubation with the blocking solution for 1 h at a room temperature, and were then incubated in the presence of anti-Syx1B (0.5 μg/ml) and anti-synaptosomal-associated protein 25 (SNAP25) antibody (1:500 dilution, clone SM-81; Sternberger Monpclonals) for 2 h at a room temperature. Immunofluorescence signals were visualized by incubation with Alexa Fluor 488-labeled donkey anti-rabbit antibody (Invitrogen) and Alexa Fluor 594-labeled donkey anti-mouse antibody (Invitrogen). The integrated fluorescence intensity of Syx1B in the growth cones was normalized to that of the SNAP 25 protein.

[4] = 15 min pretreatment with 10 μM EIPA
[5] = 15 min pretreatment with 100 μM EIPA

For `CCN(c1nc(N)c(C(=O)N=C(N)N)nc1Cl)C(C)C` [EIPA, 5-(N-ethyl-N-isopropyl)amiloride], the “effect on Syx1B knockdown-mediated reduced neurite elongation” value (DRG neurons) was “reversed”, the “effect on Sema3A-induced growth cone collapse” value [1, 4] was “suppressed” and the “effect on Syx1B knockdown-mediated growth cone collapse” value [1, 4] was “reversed”. The “effect on neurotoxin C1-induced reduction in growth cone surface area” value [1, 5] was “blocked”, the “effect on Sema3A-induced uptake of Alexa Flour 594-dextran” value [2, 4] was “suppressed” and the “effect on Syx1B knockdown-mediated accumulation of Alexa Fluor 594-dextran” value [2, 4] was “reversed”. The “effect on neurotoxin C1-induced uptake of Alexa Fluor 594-dextran” value [2, 5] was “blocked”.

In the case of `O=c1cc(N2CCOCC2)oc2c(-c3ccccc3)cccc12` [LY294002, 2-(4-morpholinyl)-8-phenyl-1 (4H)-benzopyran-4-one], the growth cone area ([1]; 10 min LY294002 treatment) is reported as “induced reduction in growth cone area”, the “macropinocytosis in the growth cones” value ([2]; 10 min LY294002 treatment) is reported as “induced macropinocytosis” and the “protein level of Syx1B normalized to that of SNAP25 in the growth cones” value [3] is reported as “significantly reduced”.

With `CC[C@H](C)[C@H](NC(=O)[C@H]([C@@H](C)CC)N(C)C(C)=O)C(=O)N[C@H](C(=O)N[C@@H](CC(C)C)C(=O)[C@@]1(C)CO1)[C@@H](C)O` [epoxomicin] the “effect on Sema3A-induced suppression of Syx1B” value ([3]; 1 μM epoxomicin) was “suppressed”.

`C/C1=C\[C@H](C)C[C@H](C)OC(=O)C[C@H](c2ccc(O)cc2)NC(=O)[C@@H](Cc2c(Br)[nH]c3ccccc23)N(C)C(=O)[C@H](C)NC(=O)[C@@H](C)C1` [jasplakinolide] was tested, and the growth cone morphology [1] was “induces growth cone collapse-like morphological changes” and the “protein level of Syx1B normalized to that of SNAP25 in the growth cones” value [3] was “not decreased”.
